Experimental data: patent US11365192B2, “Pyridine compound substituted with azole” (TAISHO PHARMACEUTICAL CO., LTD., priority 2017, dated 2022)

How the values were obtained:
human CYP4A11 = human CYP4A11 (Homo sapiens (Human), UniProt Q02928); assay: Inhibition test against 20-HETE producing enzyme CYP4A11 (luciferine derivative, luminescence); type: biochemical
How it was run: (§1)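 IC50 derived from luminescence after 60 min at room temperature with membrane fractions of E. coli expressing each human CYP (100 μg/mL protein). For CYP4A11, 60 μM luciferin derivative in 100 mM Tris-HCl pH 7.5 with NADPH-regenerating system; for CYP4F2, 2.5 μM substrate, 1 mM NADPH, 50 mM KPO4 pH 7.4.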

[1] = molecular target: 20-HETE producing enzymes, human kidney microsome; assay: Inhibition test against 20-HETE producing enzymes using human kidney microsomes (LC-MS/MS); type: biochemical; settings: for IC50: human kidney microsome 250 μg/mL protein, 20 μM arachidonic acid, 37° C. 45 minutes, LC-MS/MS; for inhibitory activities against 20-HETE producing enzymes compared to compound A and compound B: comparison with compound A and compound B of WO03/022821, human kidney microsomes
Protocol: (1) Inhibition Test for Each Compound of the Present Invention Against 20-HETE Producing Enzymes Using Human Kidney Microsomes
The reaction solution containing each compound [final concentration of 100 mM, KPO4 (pH 7.4), 20 μM Arachidonic acid, 4 mM NADPH] was added to the human kidney microsome (250 μg/mL protein). Following this, the microsome was left to stand at 37° C. for 45 minutes to perform 20-HETE producing reaction. After adding formic acid to stop the reaction, 9 times amount of acetonitrile was added, and deproteinization was carried out by centrifugation (1000 rpm, 4° C., 10 minutes). After that, the peak area value of 20-HETE was measured using a liquid chromatograph-tandem mass spectrometer (LC-MS/MS), and by using that value, the percent inhibition of 20-HETE producing enzyme (%) was calculated according to the equation described below, and the 50% inhibitory concentration (IC50 value) for each compound was calculated. Percent inhibition of 20-HETE producing enzyme (%)=[1−(A−B)/(C−B)]*100
A: Peak area value of 20-HETE/peak area value of internal standard substance with addition of compound
B: Peak area value of 20-HETE/peak area value of internal standard substance without addition of compound and NADPH
C: Peak area value of 20-HETE/peak area value of internal standard substance without addition of compound
(3) Inhibition Test for Compound a and Compound B Disclosed in WO03/022821 Against 20-HETE Producing Enzymes Using Human Kidney Microsomes
For compound A and compound B disclosed in WO03/022821, which have been described above, the 50% inhibitory concentration (IC50 value) against 20-HETE producing enzymes was calculated according to the method described in Test Example 2.
On the other hand, as described above, in Test Example 2, nonradioactive arachidonic acid was used as a substrate for 20-HETE producing reaction, and the amount of 20-HETE produced was measured using LC-MS/MS. In this case, the concentration of arachidonic acid, the substrate, is 20 μM.
In recent years, it is recommended that the substrate concentration for calculating the IC50 value be set at the Km value (Assay Guidance Manual, Sittampalam et. al. (URL: http://www.ncbi.nlm.nih.gov/books/NBK53196/)). According to this, in Test Example 2 described above, human kidney microsomes were used to calculate the Km value, and the calculated Km value of 20 μM was set as the concentration of the substrate, arachidonic acid.

human CYP4F2 = human CYP4F2 (Homo sapiens (Human), UniProt P78329); assay: Inhibition test against 20-HETE producing enzyme CYP4F2 (luciferine derivative, luminescence); type: biochemical
Chain of human CYP4F2 (P78329 5-520): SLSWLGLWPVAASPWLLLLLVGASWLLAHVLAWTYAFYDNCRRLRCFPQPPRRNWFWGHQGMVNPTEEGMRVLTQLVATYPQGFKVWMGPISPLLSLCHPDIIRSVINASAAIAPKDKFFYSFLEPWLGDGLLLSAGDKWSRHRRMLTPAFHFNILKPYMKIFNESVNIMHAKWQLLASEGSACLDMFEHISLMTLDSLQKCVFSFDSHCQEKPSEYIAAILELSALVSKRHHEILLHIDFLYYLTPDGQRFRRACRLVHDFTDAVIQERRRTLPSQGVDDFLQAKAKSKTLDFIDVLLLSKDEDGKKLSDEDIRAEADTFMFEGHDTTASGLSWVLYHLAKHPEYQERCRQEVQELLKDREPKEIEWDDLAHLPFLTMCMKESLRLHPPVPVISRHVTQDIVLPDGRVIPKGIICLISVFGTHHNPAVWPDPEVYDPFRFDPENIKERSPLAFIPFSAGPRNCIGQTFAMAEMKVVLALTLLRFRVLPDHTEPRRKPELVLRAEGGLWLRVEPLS
How it was run: as §1

human CYP4V2 = human CYP4V2 (Homo sapiens (Human), UniProt Q6ZWL3); assay: CYP4V2 selectivity test; type: biochemical; settings: cell membrane fraction expressing human CYP4V2, 7 μM luciferine derivative, 40 minutes
Chain of human CYP4V2 (Q6ZWL3 whole entry): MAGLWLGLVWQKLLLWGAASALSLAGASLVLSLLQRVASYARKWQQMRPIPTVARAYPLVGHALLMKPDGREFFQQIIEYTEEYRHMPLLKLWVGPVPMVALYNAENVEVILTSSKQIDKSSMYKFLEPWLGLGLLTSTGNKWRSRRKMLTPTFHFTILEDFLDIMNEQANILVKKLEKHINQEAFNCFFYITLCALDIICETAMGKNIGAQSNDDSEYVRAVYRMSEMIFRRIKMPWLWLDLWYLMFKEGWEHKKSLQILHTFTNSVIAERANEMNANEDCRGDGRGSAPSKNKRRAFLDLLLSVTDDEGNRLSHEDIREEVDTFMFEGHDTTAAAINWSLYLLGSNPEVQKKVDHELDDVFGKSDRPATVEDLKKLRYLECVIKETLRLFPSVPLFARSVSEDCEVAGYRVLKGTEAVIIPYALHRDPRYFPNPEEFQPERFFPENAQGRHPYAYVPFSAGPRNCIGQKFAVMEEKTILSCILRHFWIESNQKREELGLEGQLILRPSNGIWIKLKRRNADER
Protocol: (3) CYP4V2 Selectivity Test for Each Compound of the Present Invention
(§2) The reaction solution containing each compound [final concentration of 100 mM KPO4 (pH 7.4), 7 μM luciferine derivative, and 1 mM NADPH] was added to a cell membrane fraction (38 μg/mL protein) in which human CYP4V2 had been expressed. Following this, the cell membrane fraction was left to stand at room temperature for 40 minutes to perform an enzymatic reaction. After the reaction, a luciferine detection reagent was added, and the luminescence value was measured using a plate reader. By using that value, the percent inhibition of the enzymatic reaction of CYP4V2(%) was calculated according to the equation described below, and the 50% inhibitory concentration (IC50 value) for each compound was calculated. Percent inhibition of CYP4V2 enzyme (%)=[1−(A−B)/(C−B)]*100
(§3) A: Luminescence value with addition of compound
(§4) B: Luminescence value without addition of compound and enzyme
(§5) C: Luminescence value without addition of compound

human CYP4F22 = human CYP4F22 (Homo sapiens (Human), UniProt Q6NT55); assay: CYP4F22 selectivity test; type: biochemical; settings: cell membrane fraction expressing human CYP4F22, 14 μM luciferine derivative, 50 minutes
Chain of human CYP4F22 (Q6NT55 whole entry): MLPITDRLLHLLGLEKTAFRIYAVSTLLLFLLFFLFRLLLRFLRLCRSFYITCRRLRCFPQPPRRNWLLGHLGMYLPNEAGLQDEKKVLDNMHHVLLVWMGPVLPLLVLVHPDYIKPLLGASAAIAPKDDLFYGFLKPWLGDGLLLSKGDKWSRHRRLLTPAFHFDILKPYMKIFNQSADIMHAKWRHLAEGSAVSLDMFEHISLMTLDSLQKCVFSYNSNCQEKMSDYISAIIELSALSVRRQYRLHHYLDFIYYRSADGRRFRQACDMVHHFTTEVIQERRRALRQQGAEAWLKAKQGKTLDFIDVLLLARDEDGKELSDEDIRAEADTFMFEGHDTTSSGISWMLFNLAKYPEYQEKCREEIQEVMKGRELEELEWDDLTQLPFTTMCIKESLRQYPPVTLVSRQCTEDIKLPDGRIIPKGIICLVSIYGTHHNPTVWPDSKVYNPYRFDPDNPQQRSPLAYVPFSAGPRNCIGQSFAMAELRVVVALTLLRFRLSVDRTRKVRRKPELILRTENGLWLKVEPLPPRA
Protocol: (1) CYP4F22 Selectivity Test for Each Compound of the Present Invention
as §2, with “7.4), 14” for “7.4), 7”, “fraction (30” for “fraction (38”, “human CYP4F22” for “human CYP4V2”, “for 50” for “for 40”, “of CYP4F22(%)” for “of CYP4V2(%)”, “of CYP4F22” for “of CYP4V2”
as §3, §4, §5

[2] = Evaluation test for in vivo stability (half-life in plasma after intravenous administration to rats); parameters: species or system rats (Sprague-Dawley); settings: rats (SD, male), 0.5 mg/kg, half-life in plasma from CL and Vdss
Protocol: (1) Evaluation Test for In Vivo Stability of Each Compound of the Present Invention
Each compound was dissolved in an aqueous solution of 10% HP-β-CD (0.5 mg/mL), and intravenously administered to rats (Sprague-Dawley (SD), male, 7-week-old, fasted, dose: 0.5 mg/kg). Blood was collected from the tail vein at each time of blood collection, and the plasma was collected by centrifugation. Quantitative analysis of each compound in plasma was performed using LC-MS/MS. Half-life in plasma (t1/2eff) was calculated from clearance (CL) and distribution volume (Vdss) calculated through noncompartmental analysis with Phoenix WinNonlin (Certara, L.P.), according to the equation described below. t1/2eff=LN(2)/(CL/Vdss)

[3] = human CYP4A11, luciferine derivative, luminescence
[4] = human CYP4F2, luciferine derivative, luminescence
[5] = E. coli membrane fraction expressing human CYP4A11, 60 μM luciferine derivative, room temperature 60 minutes
[6] = E. coli membrane fraction expressing human CYP4F2, 2.5 μM luciferine derivative, room temperature 60 minutes

Chain of human CYP4A11 (Q02928 5-519): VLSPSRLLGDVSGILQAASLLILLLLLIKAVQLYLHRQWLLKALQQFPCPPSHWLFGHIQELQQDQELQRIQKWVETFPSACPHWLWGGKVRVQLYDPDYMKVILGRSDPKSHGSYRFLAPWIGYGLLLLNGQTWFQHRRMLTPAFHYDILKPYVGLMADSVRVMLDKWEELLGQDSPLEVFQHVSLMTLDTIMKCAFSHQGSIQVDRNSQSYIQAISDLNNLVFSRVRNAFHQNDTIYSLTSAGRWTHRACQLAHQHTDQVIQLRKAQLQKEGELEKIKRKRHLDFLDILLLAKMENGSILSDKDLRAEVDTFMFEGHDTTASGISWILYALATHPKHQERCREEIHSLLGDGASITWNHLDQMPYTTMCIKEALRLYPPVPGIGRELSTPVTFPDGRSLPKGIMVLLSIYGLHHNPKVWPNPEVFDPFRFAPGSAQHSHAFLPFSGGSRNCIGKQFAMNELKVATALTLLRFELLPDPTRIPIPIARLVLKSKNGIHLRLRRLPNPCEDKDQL

Row | Structure (SMILES) | IC50 (human CYP4A11; [3]) [nM] | IC50 [1] [nM] | IC50 (human CYP4F2; [4]) [nM] | IC50 (human CYP4V2) [nM] | IC50 (human CYP4F22) [nM] | t1/2eff [2] [h] | IC50 (human CYP4A11; [5]) [nM] | inhibitory activities against 20-HETE producing enzymes compared to compound A and compound B [1] | IC50 (human CYP4F2; [6]) [nM]
1 | O=C(O)C1CC1c1ccc(CCOc2ccc(-c3ccn[nH]3)nc2)c(F)c1 (single isomer, unassigned) [Example 71-18] | 110 | 6 | 83 | 2100 | 1900 | – | – | – | –
2 | O=C(O)C1CC1c1cccc(COc2ccc(-c3ccn[nH]3)nc2)c1F (single isomer, unassigned) [Example 71-46] | 19 | 12 | 240 | 620 | 1300 | 3.6 | – | – | –
3 | CC(C)(OCCCCCCCOc1ccc(-c2ccn[nH]2)nc1)C(=O)O [Example 15-1, 2-Methyl-2-[7-[[6-(1H-pyrazol-5-yl)-3-pyridinyl]oxy]heptoxy]propanoic Acid] | – | 18 | – | 1000 | 2900 | 2.4 | 120 | stronger inhibitory activities | 220
4 | O=C(O)C1CCCN(S(=O)(=O)c2cccc(COc3ccc(-c4ccn[nH]4)nc3)c2)C1 (stereo not shown) [Example 22-9] | – | 15 | – | – | – | – | 45 | stronger inhibitory activities | 180
5 | O=C(O)C1(F)CCN(S(=O)(=O)c2cccc(COc3ccc(-c4ccn[nH]4)nc3)c2)C1 (stereo not shown) [Example 22-11] | – | 15 | – | – | – | – | 28 | stronger inhibitory activities | 700
6 | CC(C)(COc1cc(COc2ccc(-c3ccn[nH]3)nc2)ccn1)C(=O)O [Example 22-14] | – | 32 | – | – | – | – | 70 | stronger inhibitory activities | 380
7 | O=C(O)C1(OCCCCCCCCOc2ccc(-c3ccn[nH]3)nc2)CCOCC1 [Example 68-1, 4-[8-[[6-(1H-Pyrazol-5-yl)-3-pyridinyl]oxy]octoxy]-4-oxanecarboxylic Acid] | – | 6.9 | – | – | – | – | 620 | stronger inhibitory activities | 39
8 | O=C(O)C1CC1c1cccc(CCOc2ccc(-c3ccn[nH]3)nc2)c1 (stereo not shown) [Example 70-7] | 50 | 16 | 320 | 2900 | 1400 | – | – | – | –
9 | O=C(O)[C@@H]1C[C@@H]1c1ccc(CCOc2ccc(-c3ccn[nH]3)nc2)cc1 [Example 70-10-1] | 160 | 6.4 | 120 | 3300 | 2300 | – | – | – | –
10 | O=C(O)C1(OCCCCCCCOc2ccc(-c3ccn[nH]3)nc2)COC1 [Example 71-6] | 230 | 11 | 100 | 1200 | 370 | – | – | – | –
11 | O=C(O)C1(OCCCCCCCOc2ccc(-c3ccn[nH]3)nc2)CCC1 [Example 72-2] | 120 | 4.7 | 97 | 510 | 2500 | 2.4 | – | – | –

The remaining lines, values ahead:

Row | IC50 (human CYP4A11; [3]) [nM] | IC50 [1] [nM] | IC50 (human CYP4F2; [4]) [nM] | IC50 (human CYP4V2) [nM] | IC50 (human CYP4F22) [nM] | t1/2eff [2] [h] | IC50 (human CYP4A11; [5]) [nM] | inhibitory activities against 20-HETE producing enzymes compared to compound A and compound B [1] | IC50 (human CYP4F2; [6]) [nM] | Structure (SMILES)
12 | 130 | 4 | 43 | 1500 | 3800 | 1.4 | – | – | – | O=C(O)C1(CCCCCCCCOc2ccc(-c3ccn[nH]3)nc2)COC1 [Example 72-3]
13 | 160 | 1.7 | 12 | 660 | 2300 | – | – | – | – | O=C(O)C1(CCCCCCCCOc2ccc(-c3ccn[nH]3)nc2)CS(=O)(=O)C1 [Example 73-1, 1,1-Dioxo-3-[8-[6-(1H-pyrazol-5-yl)pyridin-3-yl]oxyoctyl]thietane-3-carboxylic Acid]
14 | 53 | 20 | 130 | 2300 | 280 | – | – | – | – | O=C(O)C1CC1c1cc(CCOc2ccc(-c3ccn[nH]3)nc2)ccc1F (stereo not shown) [Example 74-2]
15 | 82 | 4.4 | 58 | 2300 | 480 | 3.5 | – | – | – | O=C(O)[C@H]1C[C@@H]1c1cccc(CCOc2ccc(-c3ccn[nH]3)nc2)c1F [Example 74-4]
16 | 88 | 9.1 | 80 | 5000 | 3000 | – | – | – | – | O=C(O)[C@@H]1C[C@H]1c1cccc(CCOc2ccc(-c3ccn[nH]3)nc2)c1F [Example 74-5]
